From the supplement of paper PMC8967900

What was measured:
Test in all cases: selective drug sensitivity score (sDSS, relative to normal bone marrow) (sDSS (score)); higher = more potent and effective on the cell line relative to normal bone marrow cells
Details in all cases: 72 h
COG-LL-317 = tested on: COG-LL-317
MOLT-14 = tested on: MOLT-14
LC4-1 = tested on: LC4-1
TANOUE = tested on: TANOUE
P30-OHKUBO = tested on: P30-OHKUBO
COG-LL-394h = tested on: COG-LL-394h
MOLT-16 = tested on: MOLT-16
COG-LL-402h = tested on: COG-LL-402h
HAL-01 = tested on: HAL-01
CCRF-CEM = tested on: CCRF-CEM
MOLT-4 = tested on: MOLT-4
DND-41 = tested on: DND-41
P12-ICHIKAWA = tested on: P12-ICHIKAWA
SUP-B15 = tested on: SUP-B15
KASUMI-2 = tested on: KASUMI-2
SEM cells = tested on: SEM cells
COG-LL-332h = tested on: COG-LL-332h
HPB-ALL = tested on: HPB-ALL
KOPN-8 = tested on: KOPN-8
697 = tested on: 697
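Also: ALL cell lines in 384-well plates, five doses spanning 10,000-fold, each plate scaled between vehicle and 100 µmol/L benzalkonium chloride controls, sDSS an adapted area-under-curve metric.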

Compound | selective drug sensitivity score (COG-LL-317) | selective drug sensitivity score (MOLT-14) | selective drug sensitivity score (LC4-1) | selective drug sensitivity score (TANOUE) | selective drug sensitivity score (P30-OHKUBO) | selective drug sensitivity score (COG-LL-394h) | selective drug sensitivity score (MOLT-16) | selective drug sensitivity score (COG-LL-402h) | selective drug sensitivity score (HAL-01) | selective drug sensitivity score (CCRF-CEM) | selective drug sensitivity score (MOLT-4) | selective drug sensitivity score (DND-41) | selective drug sensitivity score (P12-ICHIKAWA) | selective drug sensitivity score (SUP-B15) | selective drug sensitivity score (KASUMI-2) | selective drug sensitivity score (SEM cells) | selective drug sensitivity score (COG-LL-332h) | selective drug sensitivity score (HPB-ALL) | selective drug sensitivity score (KOPN-8) | selective drug sensitivity score 697
C=C1C[C@@H]2CC[C@@]34C[C@H]5O[C@H]6[C@@H](O3)[C@H]3O[C@H](CC[C@@H]3O[C@H]6[C@H]5O4)CC(=O)C[C@@H]3[C@@H](OC)[C@@H](C[C@H](O)CN)O[C@H]3C[C@H]3O[C@@H](CC[C@@H]1O2)C[C@@H](C)C3=C [Eribulin] (top concentration 1000 nM) | 26.3 | 25.2 | 24 | -8.6 | 19.6 | 6.7 | 28.6 | 17.3 | 4.6 | 19.9 | 23.3 | 9.1 | 16.7 | 25.7 | 15.5 | 22.1 | 20.6 | 13.2 | 27 | 19.5
O=c1[nH]cc(F)c(=O)[nH]1 [Fluorouracil] (top concentration 10000 nM) | 8.26 | 5.76 | 5.16 | -0.64 | 3.16 | -0.34 | 6.36 | 3.36 | -0.44 | 3.06 | 2.76 | -0.64 | 0.46 | 3.46 | 1.56 | 2.76 | 4.26 | -0.24 | 2.96 | 3.46
CC(C)C(=O)Nc1ccc([N+](=O)[O-])c(C(F)(F)F)c1 [Flutamide] (top concentration 10000 nM) | -0.56 | -0.56 | -0.46 | 0.04 | 0.94 | -0.26 | 0.34 | -0.56 | 3.94 | -0.16 | -0.46 | -0.16 | 0.74 | -0.56 | 0.34 | 2.44 | -0.56 | -0.56 | 4.24 | 1.94
C[C@]12CC[C@@H]3c4ccc(O)cc4C[C@@H](CCCCCCCCC[S+]([O-])CCCC(F)(F)C(F)(F)F)[C@H]3[C@@H]1CC[C@@H]2O (stereo not given in full) [Fulvestrant] (top concentration 1000 nM) | 0 | 0 | 0 | 0 | 0 | 0 | 0 | 0 | 0 | 0 | 0 | 8.3 | 0 | 0 | 0 | 0 | 0 | 0.2 | 0 | 0
CCCOc1ccn2c(C(C)=O)cc(-c3ccccc3S(C)(=O)=O)c2c1 [GSK2801] (top concentration 10000 nM) | 0.84 | 2.64 | 0.24 | -0.36 | -0.36 | -0.16 | -0.16 | -0.36 | -0.36 | -0.26 | -0.16 | -0.26 | -0.16 | -0.36 | 4.84 | -0.36 | 2.04 | -0.36 | 1.94 | -0.16
Cc1cccc(-c2nn3c(c2-c2ccnc4ccc(C(N)=O)cc24)CCC3)n1 [Galunisertib] (top concentration 1000 nM) | 0 | 0 | 0 | 0 | 2.9 | 0 | 0 | 0 | 1.6 | 0 | 0 | 0 | 0 | 0 | 0 | 0.1 | 0 | 0 | 0 | 0
O=C(O)CNC(=O)c1c(O)c2ccccc2n(Cc2ccccc2)c1=O [IOX-2] (top concentration 50000 nM) | -0.82 | -0.82 | -0.82 | -0.82 | -0.12 | -0.82 | -0.82 | -0.82 | -0.82 | -0.82 | -0.82 | -0.82 | -0.42 | -0.82 | 3.38 | -0.82 | -0.62 | 0.68 | 2.48 | 2.28
C#Cc1cccc(Nc2ncnc3cc4c(cc23)OCCOCCOCCO4)c1 [Icotinib] (top concentration 10000 nM) | 0 | 0 | 3.2 | 0 | 2.1 | 0 | 2.2 | 0 | 1.2 | 0.3 | 0.2 | 0 | 0.6 | 1.2 | 2.9 | 3 | 0.3 | 0 | 5.7 | 3.2
CC(C)Cn1cnc2c(N)nc3ccccc3c21 [Imiquimod] (top concentration 2500 nM) | 0 | 0 | 0.3 | 0.1 | 0 | 0.8 | 0.5 | 0 | 2.6 | 0 | 0 | 0 | 0 | 0.3 | 1.5 | 0 | 0 | 2.6 | 2.7 | 0.4
